Key:
[1] = biological target: HLA B*0801 (Homo sapiens, UniProt P01889, A93T/A95T/D138N/E176V/E187T/K202T/Q94N/R180D/S35A/V36M/Y33D/Y91F); experiment: biochemical; assay type: binding
[2] = biological target: HLA B*5802 (Homo sapiens, UniProt P01889, A329T/C349S/D201E/D98Y/E176V/E187L/E204Q/E69T/G107R/I218V/I90N/K202T/L105A/N104I/N87E/Q89R/Q94S/R106L/R155S/R180L/R86G/S101N/S121W/S35A/S48A/V127L/V306I/V36M/Y140S/Y91M); assay type: binding
[3] = biological target: HLA B*1501 (Homo sapiens, UniProt P01889, A329T/A93T/A95T/C349S/D201E/D98Y/E187L/E204Q/E69M/E70A/K202T/N87E/Q94N/R155S/R180W/S121R/S35A/S48A/V306I/V36M/Y140S/Y91S); experiment: biochemical; assay type: binding
[4] = biological target: HLA B*1503 (Homo sapiens, UniProt P01889, A329T/A93T/A95T/C349S/D201E/D98Y/E187L/E204Q/K202T/N87E/Q94N/R155S/R180L/S121R/S35A/V306I/V36M/Y140S/Y91S); experiment: biochemical; assay type: binding
[5] = biological target: HLA B*3501 (Homo sapiens, UniProt P01889, A329T/A93T/A95T/C349S/D201E/D98Y/E176V/E187L/E204Q/E69T/I218V/K202T/L119I/Q94N/R155S/R180L/S121R/S35A/S48A/T118I/V127L/V306I/V36M/Y140S/Y91F); assay type: binding
[6] = biological target: HLA A*3201 (Homo sapiens, UniProt P04439, A270S/D101S/D185E/E176V/E277Q/F133L/G103R/G107R/G231S/H175R/I121M/I218V/I322F/K168Q/L105A/L300P/L318F/M331R/P208A/P217A/Q94H/R106L/R138Q/S129P/T104I/T323A/T345S/V100E/V321M/V358M); experiment: biochemical; assay type: binding
[7] = biological target: HLA B*2705 (Homo sapiens, UniProt P01889, D138H/D201E/E176V/E204Q/G107R/H137Y/K202T/N104T/N87E/Q56L/Q94K/R106L/R155S/R180L/S101D/S121N/S48T/Y140D/Y33H/Y91C); assay type: binding; details: positional scanning combinatorial 9-mer library; normalized to 1.0 for the best residue at each position
[8] = biological target: HLA A*6802 (Homo sapiens, UniProt P04439, A269V/D140Y/D185E/E176V/E277Q/E87N/F33Y/G231S/I121R/I166T/I218V/L180W/L300P/L318F/N151K/P208A/P217A/Q86R/R138H/R169H/S129P/T345S/V36M); assay type: binding
[9] = biological target: HLA B*5101 (Homo sapiens, UniProt P01889, A329T/A93T/A95T/C349S/D138N/D201E/D98Y/E187L/E204Q/E69T/G107R/I218V/K202T/L105A/L119W/N104I/Q94N/R106L/R155S/R180L/S101N/S121T/S35A/S48A/V306I/V36M/Y195H/Y91F); assay type: binding
[10] = biological target: HLA B*5301 (Homo sapiens, UniProt P01889, A329T/A93T/A95T/C349S/D201E/D98Y/E176V/E187L/E204Q/E69T/G107R/I218V/K202T/L105A/L119I/N104I/Q94N/R106L/R155S/R180L/S101N/S121R/S35A/S48A/T118I/V127L/V306I/V36M/Y140S/Y91F); assay type: binding
[11] = biological target: HLA B*5401 (Homo sapiens, UniProt P01889, A329T/C349S/D138N/D201E/E176V/E187T/E204Q/E69G/I76V/K202T/L119W/R155S/R180L/S121T/S35A/S48A/V127L/V306I/V36M/Y140L); assay type: binding
[12] = biological target: H-2 D^b (Mus musculus, UniProt P01899); assay type: binding
[13] = biological target: H-2 D^d (Mus musculus, UniProt P01900); assay type: binding
[14] = biological target: HLA B*5801 (Homo sapiens, UniProt P01889, A329T/C349S/D201E/D98Y/E176V/E187L/E204Q/E69T/G107R/I218V/I90N/K202T/L105A/L119I/N104I/N87E/Q89R/Q94S/R106L/R155S/R180L/R86G/S101N/S121R/S35A/S48A/T118I/V127L/V306I/V36M/Y140S/Y91M); assay type: binding
[15] = biological target: HLA A*0201 (Homo sapiens, UniProt P04439, D140Y/D185E/D98H/E176V/E277Q/G131W/G231S/I119V/I121R/I166T/I218V/L300P/L318F/N151K/N90K/P208A/P217A/Q86G/Q94H/R138H/R169H/T345S); details: positional scanning combinatorial 9-mer library; normalized to 1.0 for the best residue at each position
[16] = biological target: H-2 K^k (Mus musculus, UniProt P04223); assay type: binding
[17] = biological target: HLA A*3001 (Homo sapiens, UniProt P04439, D140H/D185E/E176W/F33S/G80R/H175R/K168Q/R138E/R41S); experiment: biochemical; assay type: binding
[18] = biological target: HLA B*0702 (Homo sapiens, UniProt P01889); assay type: binding; details: positional scanning combinatorial 9-mer library; normalized to 1.0 for the best residue at each position
[19] = biological target: H-2 K^d (Mus musculus, UniProt P01902); assay type: binding
Chain of H-2 K^d (P01887 21-119): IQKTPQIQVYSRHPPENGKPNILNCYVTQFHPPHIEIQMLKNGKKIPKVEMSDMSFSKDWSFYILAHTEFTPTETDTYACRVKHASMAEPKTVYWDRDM
Chain of H-2 K^d (P01902 22-368): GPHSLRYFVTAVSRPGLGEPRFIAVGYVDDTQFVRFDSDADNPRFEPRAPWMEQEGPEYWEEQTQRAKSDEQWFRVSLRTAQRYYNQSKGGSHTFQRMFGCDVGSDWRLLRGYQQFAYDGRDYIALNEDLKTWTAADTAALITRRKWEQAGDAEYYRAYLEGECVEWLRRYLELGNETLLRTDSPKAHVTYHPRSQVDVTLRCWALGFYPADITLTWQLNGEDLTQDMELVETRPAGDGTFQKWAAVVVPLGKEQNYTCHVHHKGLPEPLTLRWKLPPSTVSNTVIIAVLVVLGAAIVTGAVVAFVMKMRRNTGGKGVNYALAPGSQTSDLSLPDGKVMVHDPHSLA

Chain of H-2 D^b (P01887 21-119): as the sequence (P01887 21-119) above
Chain of H-2 D^b (P01899 25-362): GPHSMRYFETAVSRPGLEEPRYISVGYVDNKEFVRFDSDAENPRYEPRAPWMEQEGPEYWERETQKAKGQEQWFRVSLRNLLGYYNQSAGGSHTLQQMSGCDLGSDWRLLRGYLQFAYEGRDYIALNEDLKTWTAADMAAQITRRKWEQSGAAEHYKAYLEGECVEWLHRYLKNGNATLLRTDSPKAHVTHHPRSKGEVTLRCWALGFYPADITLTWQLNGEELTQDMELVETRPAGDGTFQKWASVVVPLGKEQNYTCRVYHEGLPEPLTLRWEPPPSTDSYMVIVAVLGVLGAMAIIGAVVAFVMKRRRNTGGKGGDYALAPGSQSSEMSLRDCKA
Chain of H-2 K^k (P01887 21-119): as the sequence (P01887 21-119) above
Chain of H-2 K^k (P04223 22-369): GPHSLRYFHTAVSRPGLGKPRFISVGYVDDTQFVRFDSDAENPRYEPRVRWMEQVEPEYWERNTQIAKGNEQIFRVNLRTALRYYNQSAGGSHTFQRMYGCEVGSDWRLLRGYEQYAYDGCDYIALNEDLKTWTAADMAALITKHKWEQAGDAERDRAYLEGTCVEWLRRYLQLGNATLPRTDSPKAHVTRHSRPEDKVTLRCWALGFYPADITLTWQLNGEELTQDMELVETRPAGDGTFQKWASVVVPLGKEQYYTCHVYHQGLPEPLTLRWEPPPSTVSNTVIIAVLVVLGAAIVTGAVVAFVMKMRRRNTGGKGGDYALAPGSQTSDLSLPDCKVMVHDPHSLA
Chain of H-2 D^d (P01900 whole entry, looked up): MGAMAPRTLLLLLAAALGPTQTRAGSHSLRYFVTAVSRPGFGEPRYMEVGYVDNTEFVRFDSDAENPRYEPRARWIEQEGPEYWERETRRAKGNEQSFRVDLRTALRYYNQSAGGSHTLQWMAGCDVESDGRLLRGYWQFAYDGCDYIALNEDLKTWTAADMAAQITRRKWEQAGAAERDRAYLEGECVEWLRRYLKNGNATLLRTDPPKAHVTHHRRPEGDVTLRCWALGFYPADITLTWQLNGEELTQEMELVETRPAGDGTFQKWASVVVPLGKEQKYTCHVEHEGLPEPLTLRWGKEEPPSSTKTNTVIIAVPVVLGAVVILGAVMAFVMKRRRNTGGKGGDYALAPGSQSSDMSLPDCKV

Sequence: AXXXXXXXX [3064.0001]
- Normalized average relative binding affinity (ARB), HLA B*0801 [1]: 0.11
- Normalized average relative binding affinity (ARB), HLA B*5802 [2]: 0.065
- Normalized average relative binding affinity (ARB), HLA B*1501 [3]: 0.31
- Normalized average relative binding affinity (ARB), HLA B*1503 [4]: 0.47
- Normalized average relative binding affinity (ARB), HLA B*3501 [5]: 0.042
- Normalized average relative binding affinity (ARB), HLA A*3201 [6]: 0.36
- Normalized average relative binding affinity (ARB), HLA B*2705 [7]: 0.35
- Normalized average relative binding affinity (ARB), HLA A*6802 [8]: 0.031
- Normalized average relative binding affinity (ARB), HLA B*5101 [9]: 0.071
- Normalized average relative binding affinity (ARB), HLA B*5301 [10]: 0.0057
- Normalized average relative binding affinity (ARB), HLA B*5401 [11]: 0.014
- Normalized average relative binding affinity (ARB), H-2 Db [12]: 0.14
- Normalized average relative binding affinity (ARB), H-2 Dd [13]: 0.20
- Normalized average relative binding affinity (ARB), HLA B*5801 [14]: 0.33
- Normalized average relative binding affinity (ARB), HLA A*0201 [15]: 0.11
- Normalized average relative binding affinity (ARB), H-2 Kk [16]: 0.18
- Normalized average relative binding affinity (ARB), HLA A*3001 [17]: 0.18
- Normalized average relative binding affinity (ARB), HLA B*0702 [18]: 0.78

Sequence: XXXXXXXYX [3064.0160]
- Normalized average relative binding affinity(ARB) [1]: 0.13
- Normalized average relative binding affinity(ARB) [2]: 1.0
- Normalized average relative binding affinity(ARB) [3]: 0.20
- Normalized average relative binding affinity(ARB) [4]: 0.17
- Normalized average relative binding affinity(ARB) [5]: 0.16
- Normalized average relative binding affinity(ARB) [6]: 0.24
- Normalized average relative binding affinity(ARB) [8]: 0.22
- Normalized average relative binding affinity(ARB) [9]: 0.67
- Normalized average relative binding affinity(ARB) [10]: 0.23
- Normalized average relative binding affinity(ARB) [11]: 0.0018
- Normalized average relative binding affinity(ARB) [12]: 0.97
- Normalized average relative binding affinity(ARB) [13]: 0.40
- Normalized average relative binding affinity(ARB) [14]: 0.42
- Normalized average relative binding affinity(ARB) [16]: 0.38
- Normalized average relative binding affinity(ARB) [17]: 1.0
- Normalized average relative binding affinity(ARB) [19]: 0.56

Sequence: XXXXXXYXX [3064.0140]
- Normalized average relative binding affinity(ARB) [1]: 0.27
- Normalized average relative binding affinity(ARB) [2]: 0.069
- Normalized average relative binding affinity(ARB) [3]: 0.28
- Normalized average relative binding affinity(ARB) [4]: 0.17
- Normalized average relative binding affinity(ARB) [5]: 0.32
- Normalized average relative binding affinity(ARB) [6]: 0.55
- Normalized average relative binding affinity(ARB) [8]: 0.62
- Normalized average relative binding affinity(ARB) [9]: 1.0
- Normalized average relative binding affinity(ARB) [10]: 0.12
- Normalized average relative binding affinity(ARB) [11]: 0.32
- Normalized average relative binding affinity(ARB) [12]: 1.0
- Normalized average relative binding affinity(ARB) [13]: 0.076
- Normalized average relative binding affinity(ARB) [14]: 0.94
- Normalized average relative binding affinity(ARB) [16]: 0.092
- Normalized average relative binding affinity(ARB) [17]: 0.20
- Normalized average relative binding affinity(ARB) [19]: 0.11

Sequence: XXXXXYXXX [3064.0120]
- Normalized average relative binding affinity(ARB) [1]: 0.0094
- Normalized average relative binding affinity(ARB) [2]: 0.64
- Normalized average relative binding affinity(ARB) [3]: 0.20
- Normalized average relative binding affinity(ARB) [4]: 0.40
- Normalized average relative binding affinity(ARB) [5]: 0.061
- Normalized average relative binding affinity(ARB) [6]: 0.38
- Normalized average relative binding affinity(ARB) [8]: 0.43
- Normalized average relative binding affinity(ARB) [9]: 0.097
- Normalized average relative binding affinity(ARB) [10]: 1.0
- Normalized average relative binding affinity(ARB) [11]: 0.19
- Normalized average relative binding affinity(ARB) [12]: 0.68
- Normalized average relative binding affinity(ARB) [13]: 0.83
- Normalized average relative binding affinity(ARB) [14]: 1.0
- Normalized average relative binding affinity(ARB) [16]: 0.35
- Normalized average relative binding affinity(ARB) [17]: 0.21
- Normalized average relative binding affinity(ARB) [19]: 0.26

Sequence: XXXXYXXXX [3064.0100]
- Normalized average relative binding affinity(ARB) [1]: 0.064
- Normalized average relative binding affinity(ARB) [2]: 0.62
- Normalized average relative binding affinity(ARB) [3]: 0.95
- Normalized average relative binding affinity(ARB) [4]: 0.34
- Normalized average relative binding affinity(ARB) [5]: 0.22
- Normalized average relative binding affinity(ARB) [6]: 0.28
- Normalized average relative binding affinity(ARB) [8]: 0.27
- Normalized average relative binding affinity(ARB) [9]: 0.26
- Normalized average relative binding affinity(ARB) [10]: 0.087
- Normalized average relative binding affinity(ARB) [11]: 0.084
- Normalized average relative binding affinity(ARB) [12]: 0.013
- Normalized average relative binding affinity(ARB) [13]: 0.24
- Normalized average relative binding affinity(ARB) [14]: 0.33
- Normalized average relative binding affinity(ARB) [16]: 0.14
- Normalized average relative binding affinity(ARB) [17]: 0.21
- Normalized average relative binding affinity(ARB) [19]: 0.015

Sequence: XXXYXXXXX [3064.0080]
- Normalized average relative binding affinity(ARB) [1]: 0.59
- Normalized average relative binding affinity(ARB) [2]: 0.49
- Normalized average relative binding affinity(ARB) [3]: 0.41
- Normalized average relative binding affinity(ARB) [4]: 0.55
- Normalized average relative binding affinity(ARB) [5]: 0.085
- Normalized average relative binding affinity(ARB) [6]: 0.71
- Normalized average relative binding affinity(ARB) [8]: 0.44
- Normalized average relative binding affinity(ARB) [9]: 0.88
- Normalized average relative binding affinity(ARB) [10]: 0.29
- Normalized average relative binding affinity(ARB) [11]: 0.26
- Normalized average relative binding affinity(ARB) [12]: 0.63
- Normalized average relative binding affinity(ARB) [13]: 1.0
- Normalized average relative binding affinity(ARB) [14]: 0.27
- Normalized average relative binding affinity(ARB) [16]: 0.24
- Normalized average relative binding affinity(ARB) [17]: 0.42
- Normalized average relative binding affinity(ARB) [19]: 0.14

Reference: publication PMC2248166, “Quantitative peptide binding motifs for 19 human and mouse MHC class I molecules derived using positional scanning combinatorial peptide libraries” (Immunome Research, 2008)
